For orientation: IC50 means the point on the concentration scale where inhibition reaches its midpoint.

The source of these data is patent publication US9975888B2, “Aryl linked imidazole and triazole derivatives and methods of use thereof for improving the pharmacokinetics of a drug” (MERCK SHARP & DOHME CORP., priority 2013, dated 2018).

Where two headings read alike, the source gives them in different places.

Common to all, as to format: biochemical
In assay [1] the target is T1, CYP1A2 (Homo sapiens, UniProt P05177).
T1 construct: 0.1 mg/mL protein human liver microsomes (BD Gentest); tissue BD Gentest; host or cells: human liver microsomes
T1 sequence (P05177 1-516): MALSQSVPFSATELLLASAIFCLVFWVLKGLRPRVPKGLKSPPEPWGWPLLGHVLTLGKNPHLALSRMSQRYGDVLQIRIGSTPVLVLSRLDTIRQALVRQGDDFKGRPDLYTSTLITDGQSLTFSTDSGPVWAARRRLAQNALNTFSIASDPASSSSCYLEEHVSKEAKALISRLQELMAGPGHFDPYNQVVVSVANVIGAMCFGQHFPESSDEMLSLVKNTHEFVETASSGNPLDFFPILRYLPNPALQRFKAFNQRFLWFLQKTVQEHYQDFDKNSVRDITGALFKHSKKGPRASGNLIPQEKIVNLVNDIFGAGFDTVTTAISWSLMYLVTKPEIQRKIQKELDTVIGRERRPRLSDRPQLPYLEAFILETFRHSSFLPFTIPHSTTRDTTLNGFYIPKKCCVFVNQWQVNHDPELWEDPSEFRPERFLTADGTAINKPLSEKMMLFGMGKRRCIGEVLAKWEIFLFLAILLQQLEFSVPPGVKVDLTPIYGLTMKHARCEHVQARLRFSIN
As to the kind of experiment: Cocktail assay for CYPs, phenacetin O-deethylation (CYP1A2), human liver microsomes. The settings on record: 10 μM phenacetin, 0.1 mg/mL human liver microsomes, 10 min at 37° C.; read-out: CYP IC50 (nM) 1A2. The method, boiled down: (§1)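 Pooled human liver microsomes (0.1 mg/mL) with a probe cocktail of 10 μM phenacetin, 5 μM dextromethorphan and 2 μM midazolam plus NADPH, pH 7.4, 10 min at 37° C. Each metabolite was quantified by LC/MS/MS against a tolbutamide internal standard. IC50 came from % inhibition at 6 concentrations (e.g. 0.0032–10 μM) by non-linear regression.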
In general terms: Liver microsomes are vesicles of endoplasmic reticulum, rich in cytochrome P450 enzymes.

The target of assay [2] is T2, CYP2C9 (Homo sapiens, UniProt P11712).
T2 construct: 0.1 mg/mL protein human liver microsomes (BD Gentest); tissue BD Gentest; host or cells: human liver microsomes
T2 sequence (P11712 whole entry): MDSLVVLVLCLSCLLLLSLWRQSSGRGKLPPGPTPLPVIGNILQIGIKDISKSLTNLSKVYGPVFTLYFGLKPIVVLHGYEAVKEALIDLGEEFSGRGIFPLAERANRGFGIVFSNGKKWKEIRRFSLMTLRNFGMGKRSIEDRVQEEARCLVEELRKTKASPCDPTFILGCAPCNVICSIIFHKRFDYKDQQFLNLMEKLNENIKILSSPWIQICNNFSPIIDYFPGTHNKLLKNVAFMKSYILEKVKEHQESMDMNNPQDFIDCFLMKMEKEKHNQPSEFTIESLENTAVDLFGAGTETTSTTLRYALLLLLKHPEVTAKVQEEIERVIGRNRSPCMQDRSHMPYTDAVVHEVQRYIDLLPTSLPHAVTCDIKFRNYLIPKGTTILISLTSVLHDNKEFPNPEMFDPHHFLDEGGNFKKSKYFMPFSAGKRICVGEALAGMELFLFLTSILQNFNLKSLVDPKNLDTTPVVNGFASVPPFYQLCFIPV
As to the kind of experiment: Cocktail assay for CYPs, diclofenac 4′-hydroxylation (CYP2C9), human liver microsomes. The settings on record: 0.1 mg/mL human liver microsomes, 10 min at 37° C. In a few lines: (§2)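 Pooled human liver microsomes (0.1 mg/mL) with probe cocktail incl. 5 μM diclofenac (CYP2C9) and 30 μM mephenytoin (CYP2C19), 1 mM NADPH, pH 7.4 phosphate buffer, 10 min at 37° C. Metabolites quantified by LC/MS/MS against internal standard; % inhibition versus no-inhibitor control, IC50 by non-linear regression.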

Assay [3] deals with T3, CYP2C19 (Homo sapiens, UniProt P33261).
T3 construct: 0.1 mg/mL protein human liver microsomes (BD Gentest); tissue BD Gentest; host or cells: human liver microsomes
T3 sequence (P33261 whole entry): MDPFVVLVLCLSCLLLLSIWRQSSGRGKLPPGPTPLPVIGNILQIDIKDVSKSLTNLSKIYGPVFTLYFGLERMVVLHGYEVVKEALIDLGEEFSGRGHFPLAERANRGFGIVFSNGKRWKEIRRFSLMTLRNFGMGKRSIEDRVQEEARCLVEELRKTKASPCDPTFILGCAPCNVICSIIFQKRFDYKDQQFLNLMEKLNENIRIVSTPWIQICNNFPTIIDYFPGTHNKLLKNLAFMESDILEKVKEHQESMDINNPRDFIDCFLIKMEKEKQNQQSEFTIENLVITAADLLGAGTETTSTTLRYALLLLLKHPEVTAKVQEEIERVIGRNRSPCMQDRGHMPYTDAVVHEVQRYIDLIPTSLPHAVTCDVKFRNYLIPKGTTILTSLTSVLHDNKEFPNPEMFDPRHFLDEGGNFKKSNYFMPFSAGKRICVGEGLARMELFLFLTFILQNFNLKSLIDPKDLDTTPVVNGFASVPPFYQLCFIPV
Description: Cocktail assay for CYPs, mephenytoin 4′-hydroxylation (CYP2C19), human liver microsomes. The settings on record: 0.1 mg/mL human liver microsomes, 10 min at 37° C. In a few lines:
as §2

Assay [4] has as its target T4, CYP2D6 (Homo sapiens, UniProt P10635).
T4 construct: 0.1 mg/mL protein human liver microsomes (BD Gentest); tissue BD Gentest; host or cells: human liver microsomes
As to the kind of experiment: Cocktail assay for CYPs, dextromethorphan O-demethylation (CYP2D6), human liver microsomes. Particulars: 5 μM dextromethorphan, 0.1 mg/mL human liver microsomes, 10 min at 37° C.; read-out: CYP IC50 (nM) 2D6. The method, boiled down: as §1

Assay [5] deals with T5, CYP3A4 (Homo sapiens, UniProt P08684). As to the kind of experiment: Cocktail assay for CYPs, midazolam 1′-hydroxylation (CYP3A4), human liver microsomes. Details: 0.1 mg/mL protein human liver microsomes (BD Gentest); tissue BD Gentest; host or cells: human liver microsomes. Particulars: 2 μM midazolam, 0.1 mg/mL human liver microsomes, 10 min at 37° C.; read-out: CYP IC50 (nM) 3A4 (MDZ). In a few lines: as §1
Target sequence in this assay (P08684 whole entry): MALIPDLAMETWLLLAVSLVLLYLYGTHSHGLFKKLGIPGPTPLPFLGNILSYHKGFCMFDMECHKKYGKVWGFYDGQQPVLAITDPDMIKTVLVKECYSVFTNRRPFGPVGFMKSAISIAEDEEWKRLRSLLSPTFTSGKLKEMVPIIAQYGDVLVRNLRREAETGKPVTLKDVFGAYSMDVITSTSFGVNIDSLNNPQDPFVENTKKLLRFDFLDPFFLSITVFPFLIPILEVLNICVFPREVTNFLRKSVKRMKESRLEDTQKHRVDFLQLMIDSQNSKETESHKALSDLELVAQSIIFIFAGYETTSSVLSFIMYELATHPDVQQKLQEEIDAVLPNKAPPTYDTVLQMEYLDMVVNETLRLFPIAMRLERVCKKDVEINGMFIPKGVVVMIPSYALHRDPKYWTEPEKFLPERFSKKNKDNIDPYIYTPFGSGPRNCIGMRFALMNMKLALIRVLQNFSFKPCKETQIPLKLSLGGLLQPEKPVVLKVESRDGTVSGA

The target in assay [6] is T5, CYP3A4. As to the kind of experiment: IC50 vs CYP3A by inhibition of lopinavir metabolism in human liver microsomes. Also noted: 0.01 mg/mL protein human liver microsomes (BD Gentest); tissue BD Gentest; host or cells: human liver microsomes. Particulars: 1.5 μM lopinavir, 0.01 mg/mL human liver microsomes, 8 min at 37° C.; read-out: CYP IC50 (nM) 3A4 (LPV). The method, boiled down: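 Human liver microsomes (0.01 mg/mL) with 1.5 μM lopinavir, 1 mM NADPH, 3.3 mM MgCl2 in 100 mM potassium phosphate pH 7.4, 8 min at 37 °C, six compound concentrations. Summed M2/M3/M4 hydroxy metabolites quantified by LC/MS/MS against tolbutamide; % inhibition normalised between no-inhibitor and 5 μM ketoconazole controls, IC50 by non-linear regression.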
Target sequence in this assay (P08684 2-503): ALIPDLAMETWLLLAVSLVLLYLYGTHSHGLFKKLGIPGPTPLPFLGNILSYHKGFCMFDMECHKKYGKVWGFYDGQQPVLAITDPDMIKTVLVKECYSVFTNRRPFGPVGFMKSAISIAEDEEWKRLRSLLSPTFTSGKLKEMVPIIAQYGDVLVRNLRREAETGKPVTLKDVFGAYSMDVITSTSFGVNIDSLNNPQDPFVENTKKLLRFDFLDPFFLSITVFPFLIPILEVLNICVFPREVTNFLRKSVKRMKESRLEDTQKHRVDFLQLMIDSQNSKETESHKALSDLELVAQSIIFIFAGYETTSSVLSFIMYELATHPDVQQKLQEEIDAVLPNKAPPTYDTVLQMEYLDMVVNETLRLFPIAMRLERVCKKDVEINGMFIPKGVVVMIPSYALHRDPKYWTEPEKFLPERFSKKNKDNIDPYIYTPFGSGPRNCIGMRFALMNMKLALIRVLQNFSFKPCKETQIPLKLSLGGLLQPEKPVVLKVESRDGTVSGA

Where [7] appears, read: 5 μM diclofenac, read-out: CYP IC50 (nM) 2C9.
[8] abbreviates: 30 μM mephenytoin, read-out: CYP IC50 (nM) 2C19.

T4 sequence (P10635 whole entry): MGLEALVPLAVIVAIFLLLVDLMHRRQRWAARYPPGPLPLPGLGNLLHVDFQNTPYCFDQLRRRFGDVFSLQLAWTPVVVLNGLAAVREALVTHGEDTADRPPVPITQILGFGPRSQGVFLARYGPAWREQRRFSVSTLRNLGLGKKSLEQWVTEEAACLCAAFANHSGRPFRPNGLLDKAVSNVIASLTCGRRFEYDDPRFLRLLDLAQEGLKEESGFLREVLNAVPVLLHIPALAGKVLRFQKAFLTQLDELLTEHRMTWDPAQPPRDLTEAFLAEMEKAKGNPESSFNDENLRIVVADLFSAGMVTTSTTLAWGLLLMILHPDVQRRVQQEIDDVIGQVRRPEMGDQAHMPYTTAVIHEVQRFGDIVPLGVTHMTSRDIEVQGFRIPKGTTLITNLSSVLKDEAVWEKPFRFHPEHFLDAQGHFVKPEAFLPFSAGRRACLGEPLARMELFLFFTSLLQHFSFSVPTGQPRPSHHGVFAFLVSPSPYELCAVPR

On to `O=S(=O)(NCc1ccccc1-c1cncn1CCc1ccc(F)cc1)c1cnc(N2CCN3C[C@H](O)C[C@H]3C2)s1` [Compound 19, N-(2-(1-(4-fluorophenethyl)-1H-imidazol-5-yl)benzyl)-2-((7R,8aS)-7-hydroxyhexahydropyrrolo[1,2-a]pyrazin-2 (1H)-yl)thiazole-5-sulfonamide], for which the IC50 in assay [1] was over 10000 nM; in assay [2] (setting [7]) it was 6270 nM; in assay [3] (setting [8]) it was over 10000 nM; in assay [4], 3200 nM; in assay [5] it was 9.5 nM; in assay [6], 16.4 nM.

As for `C[C@@H](NS(=O)(=O)c1cnc(N2CCN3C[C@H](O)C[C@H]3C2)s1)c1ccccc1-c1cncn1CCc1ccc(F)cc1` [Compound 6a, N-((R)-1-(2-(1-(4-fluorophenethyl)-1H-imidazol-5-yl)phenyl)ethyl)-2-((7R,8aS)-7-hydroxy-hexahydro-pyrrolo[1,2-a]pyrazin-2(1H)-yl)thiazole-5-sulfonamide], the IC50 in assay [1] was over 10000 nM; in assay [2] (CYP IC50 (nM) 2C9, 5 μM diclofenac), 4550 nM; in assay [3] (CYP IC50 (nM) 2C19, 30 μM mephenytoin) it was 8700 nM; in assay [4], 2540 nM; in assay [5] it was 7.5 nM; in assay [6], 8.6 nM.

Take `COCCn1cncc1-c1ccccc1C1CCCN1S(=O)(=O)c1cnc(NC(C)=O)s1` (stereo not drawn) [Compound 20, N-(5-((2-(2-(1-(2-methoxyethyl)-1H-imidazol-5-yl)phenyl)pyrrolidin-1-yl)sulfonyl)thiazol-2-yl)acetamide]: the IC50 is over 10000 nM in assay [1]; over 10000 nM in assay [2] (setting [7]); over 10000 nM in assay [3] (setting [8]); over 10000 nM in assay [4]; 38.5 nM in assay [5]; at least 100 nM in assay [6].

Consider `COCCN(C)c1ccc(S(=O)(=O)N2CCc3c(cccc3-c3cncn3CCc3ccc(F)cc3)C2)cn1` [Compound 62, 5-((5-(1-(4-fluorophenethyl)-1H-imidazol-5-yl)-3,4-dihydroisoquinolin-2(1H)-yl)sulfonyl)-N-(2-methoxy-ethyl)-N-methylpyridin-2-amine], for which the IC50 in assay [1] is over 10000 nM; in assay [2] (setting [7]), 575 nM; in assay [3] (setting [8]) it was 238 nM; in assay [4] it was 2720 nM; in assay [5], 5.2 nM; in assay [6], 1.3 nM.

For `O=C(C1CCOCC1)N1CCCC1c1cccc(-c2cncn2CCc2ccc(F)cc2)c1` (single isomer, unassigned) [Compound 49b, (R or S)-(2-(3-(1-(4-fluorophenethyl)-1H-imidazol-5-yl)phenyl)pyrrolidin-1-yl)(tetrahydro-2H-pyran-4-yl)methanone], the half-maximal inhibitory concentration (IC50) in assay [1] was over 10000 nM; in assay [2] (setting [7]), over 10000 nM; in assay [3] (setting [8]), 6910 nM; in assay [4], over 10000 nM; in assay [5], 58.6 nM; in assay [6], over 100 nM.

`O=C(C1CC1)N1CCCC1c1ccccc1-c1cncn1CCc1ccc(F)cc1` (single isomer, unassigned) [Compound 44a, (R or S)-cyclopropyl(2-(2-(1-(4-fluorophenethyl)-1H-imidazol-5-yl)phenyl)pyrrolidin-1-yl)methanone]: the IC50 in assay [1] was over 10000 nM; in assay [2] (setting [7]), over 10000 nM; in assay [3] (setting [8]) it was 6520 nM; in assay [4] it was over 10000 nM; in assay [5], 46.6 nM; in assay [6], 20.1 nM.

`O=S(=O)(c1cnc(N2CCN3C[C@H](O)C[C@H]3C2)s1)N1CCCC1c1ccccc1-c1cncn1CCc1ccc(F)cc1` (single isomer, unassigned) [Compound 22a, (7R,8aS)-2-(5-(((R or S)-2-(2-(1-(4-fluoro-phenethyl)-1H-imidazol-5-yl)phenyl)pyrrolidin-1-yl)sulfonyl)thiazol-2-yl) octahydro-pyrrolo[1,2-a] pyrazin-7-ol]: the IC50 in assay [1] was 7020 nM; in assay [2] (setting [7]) it was 6300 nM; in assay [3] (setting [8]), over 10000 nM; in assay [4], 3940 nM; in assay [5], 5.3 nM; in assay [6], 1.4 nM.

`O=S(=O)(c1ccc2c(c1)OCO2)N1CCCC1c1ccccc1-c1cncn1CCc1ccc(F)cc1` (stereo not drawn) [Compound 26, 5-(2-(1-(benzo[d][1,3]dioxol-5-ylsulfonyl)pyrrolidin-2-yl)phenyl)-1-(4-fluorophenethyl)-1H-imidazole]: the IC50 in assay [1] was 5020 nM; in assay [2] (setting [7]) it was 1160 nM; in assay [3] (setting [8]), 1360 nM; in assay [4], 1650 nM; in assay [5], 3.8 nM; in assay [6], 1 nM.

On to `CN(C)c1ccc(S(=O)(=O)N2CCCC2c2ccccc2-c2cncn2CCc2ccc(F)cc2)cn1` (single isomer, unassigned) [Compound 28a, (R or S)-5-((2-(2-(1-(4-fluorophenethyl)-1H-imidazol-5-yl)phenyl)pyrrolidin-1-yl)sulfonyl)-N,N-dimethylpyridin-2-amine], for which the IC50 in assay [1] was over 10000 nM; in assay [2] (setting [7]), 1520 nM; in assay [3] (setting [8]), 2390 nM; in assay [4] it was 6990 nM; in assay [5], 3.5 nM; in assay [6], 0.7 nM.

As for `O=C(c1ccc(N2CCOCC2)nc1)N1CCCC1c1ccccc1-c1cncn1CCc1ccc(F)cc1` (single isomer, unassigned) [Compound 43a, (R or S)-(2-(2-(1-(4-fluorophenethyl)-1H-imidazol-5-yl)phenyl)pyrrolidin-1-yl) (6-morpholino-pyridin-3-yl) methanone], the IC50 is over 10000 nM in assay [1]; over 10000 nM in assay [2] (setting [7]); 3270 nM in assay [3] (setting [8]); over 10000 nM in assay [4]; 36.3 nM in assay [5]; 35.2 nM in assay [6].

On to `CC(C)(C)OC(=O)N1CCCC1c1ccccc1-c1cncn1CCc1ccc(F)cc1` (stereo not drawn) [Compound 38, tert-butyl 2-(2-(1-(4-fluorophenethyl)-1H-imidazol-5-yl)phenyl) pyrrolidine-1-carboxylate], for which the IC50 in assay [1] was 3350 nM; in assay [2] (setting [7]), 1770 nM; in assay [3] (setting [8]), 2300 nM; in assay [4], 6860 nM; in assay [5], 6.7 nM; in assay [6], 5.5 nM.

On to `O=S(=O)(c1ccc(NCC(O)C2CC2)nc1)N1CCCC1c1ccccc1-c1cncn1CCc1ccc(F)cc1` (single isomer, unassigned) [Compound 34a, 1-cyclopropyl-2-((5-(((R or S)-2-(2-(1-(4-fluorophenethyl)-1H-imidazol-5-yl)phenyl)pyrrolidin-1-yl)sulfonyl)pyridin-2-yl)amino)ethanol], for which the IC50 in assay [1] worked out at 7020 nM; in assay [2] (setting [7]), 2620 nM; in assay [3] (setting [8]) it was 2680 nM; in assay [4], 1670 nM; in assay [5], 10.4 nM; in assay [6], 4.5 nM.

Take `CC(=O)Nc1ncc(S(=O)(=O)NCc2cccc(-c3cncn3CCc3ccc(F)cc3)c2)s1` [Compound 13, N-(5-(N-(3-(1-(4-fluorophenethyl)-1H-imidazol-5-yl)benzyl)sulfamoyl)thiazol-2-yl)acetamide]: the IC50 in assay [1] stood at 99 nM; in assay [2] (setting [7]), 65 nM; in assay [3] (setting [8]), 357 nM; in assay [4], 348 nM; in assay [5], 5.9 nM; in assay [6], 5.3 nM.
